The record followed here is patent EP0552417B1, “Cyclic peptides and use thereof” (priority 1991, dated 1993).

Read-outs that look alike come from different tables or passages of the source. Non-standard residues stand in square brackets, D forms with d. Residues, ends and D or L forms follow the SMILES beside them. *: point of attachment. For = O=C*

The conditions of data set [1]: amide bond, 18-membered ring, DMF, 4 steps.
For another data set, the system named is ETB. The data set is described as follows: ETB radio receptor assay *2, 125I-endothelin-1, guinea pig kidney crude membrane fraction. The class given is binding, Guinea pigs. The note with it: relative activity, 37 °C, 90 minutes. As for the experimental part:
ETB Radio Receptor Assay *2
In the endothelin radio receptor assay, guinea pigs' kidneys were used. Guinea pigs (Std Hartrey, male 250 g, Japan SLC Ltd.) were made to have a cerebral concussion and sacrificed by bleeding from carotid arteries to pick up the kidneys and removed fat therefrom to prepare the kidneys. The obtained kidneys were sliced and homogenized by politron homogenizer in 20 ml of 50 mM Tris-HCl buffer [pH 7.4; 20 mM NaHCO3, 0.1 mM PMSF (Phenylmethylsulfonyl Fluoride), 1 mM EDTA (Ethylenediaminetetraacetic acid)] per one kidney. The homogenized kidney was applied to a centrifugation at 1,000 x g for 15 minutes and the supernatant was further applied to a centrifugation for 20 minutes at 30,000 x g. The resulting precipitate was twice washed with 50 mM Tris-HCl buffer (pH 7.4) containing 0.1 mM PMSF, 1 mM EDTA. The resultant was stored at -80 °C as a crude receptor membrane fraction and was used as the suspension in the following buffer when necessary.
740 Bq of ^125I-endothelin-1 (81.4 TBq/mmol, Du Pont, USA) as a radio ligand, the crude membrane fraction (2.1 µg protein) and samples were added to the following buffer. The reaction was performed at 37 °C, for 90 minutes in 0.2 ml of the buffer [50 mM Tris-HCl buffer (pH 7.4) containing 0.1 mM PMSF, 1 mM EDTA, 0.2% bovine serum albumin].
The reaction was stopped by fast filtration on a glass filter (GF/B, Wattman, USA) by Cell Harvestor (290 PHD, Cambridge-Technology, Great Britain), and the filter was three times washed with 50 mM Tris-HCl buffer (pH 7.4). Radio activity remained on the filter was assayed by a gamma counter.

Data set [2] concerns the target T1, endothelin receptor A (ETA) (Sus scrofa, UniProt Q29010).
T1 construct: A membrane fraction prepared from the porcine heart; from tissue; host or cells: porcine heart membrane fraction
T1 sequence (Q29010 21-427): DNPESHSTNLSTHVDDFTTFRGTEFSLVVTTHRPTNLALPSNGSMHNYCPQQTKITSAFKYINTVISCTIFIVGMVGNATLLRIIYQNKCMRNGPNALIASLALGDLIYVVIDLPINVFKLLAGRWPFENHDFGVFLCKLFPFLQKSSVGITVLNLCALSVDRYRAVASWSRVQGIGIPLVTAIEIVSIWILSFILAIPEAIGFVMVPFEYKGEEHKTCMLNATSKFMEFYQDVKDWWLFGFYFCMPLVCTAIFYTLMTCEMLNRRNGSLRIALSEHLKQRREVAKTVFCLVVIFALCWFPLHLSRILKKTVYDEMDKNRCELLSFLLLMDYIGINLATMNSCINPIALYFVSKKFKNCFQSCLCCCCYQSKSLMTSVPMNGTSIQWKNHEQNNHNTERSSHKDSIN
The data set is described as follows: Assay of affinity for receptor (1): binding activity on ETA receptor, 125I-labeled endothelin-1, porcine heart membrane fraction. More on the design: key: relative specific activity; reference cyclic pentapeptide ETA binding = 1.0. The note with it: specific activity, taking the binding activity of control cyclo[-D-Glu-Ala-D-aIle-Leu-D-Trp-] on receptor A as 1.0, 25°C, 1 hour. As for the experimental part:
Assay of Affinity for Receptor (1) ... Binding Activity on ETA Receptor
A membrane fraction prepared from the porcine heart was diluted to 0.15 mg/ml by using a buffer solution for assay, and 100 µl of the resulting suspension of the membrane fraction was poured into each assay tube to use for assay. To this suspension of the membrane fraction was added 2 µl of 5 nM ^125I-labeled endothelin-1 solution. Further, 3 µl of a test peptide solution was added thereto, followed by incubation at a temperature of 25°C for 1 hour. Then, the resulting suspension was diluted with 900 µl of the buffer solution for assay cooled with ice, and thereafter separated into a supernatant and a precipitate by centrifugation at 12,000 X g for 10 minutes. Cell membranes and an endothelin receptor A (ETA) embedded therein were contained in the precipitate, and radioactive iodine-labeled endothelin combined with the receptor was also recovered in the precipitate. Accordingly, the amount of radioactive iodine-labeled endothelin combined with the endothelin receptor A (ETA) was determined by measuring the amount of radioactive iodine contained in the precipitate with a gamma-ray counter. The cyclic pentapeptide described in Japanese Patent Application No. 2-413328/1990, cyclo[-D-Glu-Ala-D-aIle-Leu-D-Trp-], was used as a control compound. The numerical value of ETA shown in Table 1 is the value of specific activity, taking the binding activity of this cyclic pentapeptide on the receptor A as 1.0. The binding activity (IC50) of this cyclic pentapeptide on the ETA receptor is 2x10^-6 M.

The target of data set [3] is T2, endothelin receptor B (ETB) (Bos taurus, UniProt P28088).
T2 construct: A membrane fraction prepared from the bovine brain; from tissue; host or cells: bovine brain membrane fraction
T2 sequence (P28088 27-441): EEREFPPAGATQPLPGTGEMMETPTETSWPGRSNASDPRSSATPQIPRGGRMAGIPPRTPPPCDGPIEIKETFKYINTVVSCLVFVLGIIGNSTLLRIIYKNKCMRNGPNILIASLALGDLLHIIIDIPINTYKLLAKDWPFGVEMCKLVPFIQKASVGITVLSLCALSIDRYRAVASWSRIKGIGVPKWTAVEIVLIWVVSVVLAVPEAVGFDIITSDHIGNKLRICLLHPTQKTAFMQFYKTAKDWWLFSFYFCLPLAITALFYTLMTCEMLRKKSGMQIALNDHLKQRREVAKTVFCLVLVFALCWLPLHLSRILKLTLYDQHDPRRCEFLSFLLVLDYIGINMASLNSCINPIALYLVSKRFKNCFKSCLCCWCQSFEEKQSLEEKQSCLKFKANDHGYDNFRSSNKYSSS
The data set is described as follows: Assay of affinity for receptor (2): binding activity on ETB receptor *1, 125I-labeled endothelin-1, bovine brain membrane fraction. The note with it: specific activity, taking the binding activity of the compound of Example 8 on receptor B as 100, 25°C, 1 hour. Here is the method:
Assay of Affinity for Receptor (2) ... Binding Activity on ETB Receptor *1
A membrane fraction prepared from the bovine brain was diluted to 0.15 mg/ml by using a buffer solution for assay, and 100 µl of the resulting suspension of the membrane fraction was poured into each assay tube to use for assay. To this suspension of the membrane fraction was added 2 µl of 5 nM ^125I labeled endothelin-1 solution. Further, 3 µl of a test peptide solution was added thereto, followed by incubation at a temperature of 25°C for 1 hour. Then, the resulting suspension was diluted with 900 µl of the buffer solution for assay cooled with ice, and thereafter separated into a supernatant and a precipitate by centrifugation at 12,000 X g for 10 minutes. Cell membranes and an endothelin receptor B (ETB) embedded therein were contained in the precipitate, and radioactive iodine-labeled endothelin bound to the receptor was also recovered in the precipitate. Accordingly, the amount of radioactive iodine-labeled endothelin bound to the endothelin receptor B (ETB) was determined by measuring the amount of radioactive iodine contained in the precipitate with a gamma-ray counter. The numerical value of ETB shown in Table 1 is the value of specific activity, taking the binding activity of the compound of Example 8 on the receptor B as 100.

[4] abbreviates: HONB/DCC preactivation, TEA, 5.0 mM.
The mark [5] stands for this setting: HONB ester (HONB/DCC preactivation)/TEA, 5.0 mM.
The mark [6] stands for this setting: HONB/DCC (preformed ONB ester), TEA, 5.0 mM.
Setting [7] is: HONB/DCC (preactivation), HCl/dioxane, TEA, 5.0 mM.

In the case of cyclo[-D-Asp-Ala-Asp-D-Leu-Leu-D-Trp-], the ring closure, yield after HPLC in data set [1] (setting [4]) stood at 18.2%.

cyclo[-D-Asp-Pro-Asp-D-Leu-Leu-D-Trp-] yielded a ring closure, yield after HPLC in data set [1] (HONB ester (HONB/DCC preactivation)/TEA, 5.1 mM) of 47.4%.

As for `CC(C)C[C@@H]1NC(=O)[C@@H](CC(C)C)NC(=O)[C@H](CC(=O)O)NC(=O)[C@H](Cc2cn(C=O)c3ccccc23)NC(=O)[C@@H](CC(=O)O)NC(=O)[C@@H](Cc2c[nH]c3ccccc23)NC1=O` [Example 22, Cyclo[-D-Asp-Trp(For)-Asp-D-Leu-Leu-D-Trp-]] (cyclo(D[dL]L[dW][dD]W(For))), in the data set on ETB, the “Binding Activity on ET Receptor (R. act.) ETB*2” value was found to be 15. Moreover, the “Binding Activity on ET Receptor (R. act.) ETA” value in data set [2] is 8.3. Further, in data set [3], the “Binding Activity on ET Receptor (R. act.) ETB*1” value is 6.7.

cyclo[-D-Asp-Ala-Glu-D-Leu-Leu-D-Trp-] gave a ring closure, yield after HPLC in data set [1] (setting [4]) of 24.1%.

Consider “cyclo[-D-Asp-Asn(CH2CH2-Ind)-Asp-D-Leu-Leu-D-Trp-]”, for which the ring closure, yield after HPLC in data set [1] (HONB/DCC (preactivation), HCl/dioxane, TEA, 3.2 mM) worked out at 19.4%.

Compound “cyclo[-D-Asp-Asn(CH2Ph)-Asp-D-Leu-Leu-D-Trp-]” had a ring closure, yield after HPLC in data set [1] (HONB ester (HONB/DCC preactivation)/TEA, 3.5 mM) of 23.8%.

For “cyclo[-D-Asp-Orn(COCH2-Ind)-Asp-D-Leu-Leu-D-Trp-]”, in data set [1] (HONB/DCC (preformed ONB ester), TEA, 4.9 mM), the ring closure, yield after HPLC was found to be 12.5%.

On to cyclo[-D-Asp-Asp-Ala-D-Leu-Leu-D-Trp-], for which, in data set [1] (setting [5]), the ring closure, yield after HPLC amounted to 17.8%.

In turn, cyclo[-D-Asp-Gly-Ala-D-Leu-Leu-D-Trp-] gave a ring closure, yield after HPLC in data set [1] (HONB ester (HONB/DCC preactivation)/TEA, 5.9 mM) of 19.2%.

Regarding “cyclo[-D-Asp-Gln(Bzl)-Asp-D-Thg(2)-Leu-D-Trp-]”, the ring closure, yield after HPLC in data set [1] (HONB/DCC preactivation, HCl, TEA, 5.1 mM) came to 8.8%.

In data set [1] (setting [6]), “cyclo[-D-Asp-Hyp(Bzl)-Asp-D-Thg(2)-Leu-D-Trp-]” had a ring closure, yield after HPLC of 5.7%.

The compound “cyclo[-D-Asp-Orn(COCH2CH2Ph)-Asp-D-Leu-Leu-D-Trp-]” displayed a ring closure, yield after HPLC in data set [1] (HONB/DCC (preformed ONB ester), TEA, 5.1 mM) of 40.9%.

In turn, “cyclo[-D-Asp-Asn(CH2CH2Ph)-Asp-D-Leu-Leu-D-Trp-]” gave a ring closure, yield after HPLC in data set [1] (HONB/DCC (preactivation), HCl/dioxane, TEA, 3.5 mM) of 24.1%.

In the case of “cyclo[-D-Asp-Ala-D-Glu-D-Leu-Leu-D-Trp-]”, the ring closure, yield after HPLC in data set [1] (setting [4]) was determined as 10.8%.

In data set [1] (setting [4]), “cyclo[-D-Asp-Ala-D-Asp-D-Leu-Leu-D-Trp-]” returned a ring closure, yield after HPLC of 15.3%.

In data set [1] (HONB/DCC (preactivation), HCl/dioxane, TEA, 5.1 mM), “cyclo[-D-Asp-Trp-Asp-D-Thg(2)-Leu-D-Trp-]” had a ring closure, yield after HPLC of 4.6%.

Compound “cyclo[-D-Asp-Orn(COCH2Ph)-Asp-D-Leu-Leu-D-Trp-]” came in with a ring closure, yield after HPLC in data set [1] (HONB/DCC (preformed ONB ester), TEA, 4.7 mM) of 2.9%.

Consider cyclo[-D-Asp-Trp-Asp-D-Leu-Leu-D-Trp-], for which, in data set [1] (setting [5]), the ring closure, yield after HPLC worked out at 52.9%.

Regarding “cyclo[-D-Asp-Trp-Asp-D-γMeLeu-Leu-D-Trp-]”, the ring closure, yield after HPLC in data set [1] (setting [7]) stood at 51.5%.

For the compound “H-Acbu-Leu-dTrp-dAsp(OBzl)-Trp-Asp(OBzl)-ONB”, the ring closure, yield after HPLC in data set [1] (the molecule shown is the open-chain precursor, HONB/DCC (preformed ONB ester), TEA, 5.0 mM) came to 10.4%.

For cyclo[-D-Asp-Trp-Asp-D-tLeu-Leu-D-Trp-], the ring closure, yield after HPLC in data set [1] (setting [7]) turned out to be 42.8%.

In turn, “cyclo[-D-Asp-Orn(COPh)-Asp-D-Leu-Leu-D-Trp-]” yielded a ring closure, yield after HPLC in data set [1] (setting [6]) of 48.1%.

For the compound cyclo[-D-Asp-Glu-Ala-D-Leu-Leu-D-Trp-], in data set [1] (setting [5]), the ring closure, yield after HPLC came to 20.6%.

Compound “cyclo[-D-Asp-Asn(CH2CH2-Ind)-Asp-D-Thg(2)-Leu-D-Trp-]” showed a ring closure, yield after HPLC in data set [1] (HONB/DCC preactivation, HCl, TEA, 5.0 mM) of 9.5%.

For the compound `CC(C)C[C@@H]1NC(=O)[C@@H](CC(C)C)NC(=O)[C@@H](CCC(=O)O)NC(=O)[C@H](C)NC(=O)[C@@H](CC(=O)O)NC(=O)[C@@H](Cc2c[nH]c3ccccc23)NC1=O` [Example 4, cyclo[-D-Asp-Ala-D-Glu-D-Leu-Leu-D-Trp-]] (cyclo(A[dE][dL]L[dW][dD])), the “Binding Activity on ET Receptor (R. act.) ETB*2” value with ETB is on record as 1.4. For the same compound, the “Binding Activity on ET Receptor (R. act.) ETA” value in data set [2] came to 2.3.

Consider `CC(C)C[C@@H]1NC(=O)[C@@H](CC(C)C)NC(=O)[C@H](CC(=O)O)NC(=O)[C@H](Cc2c[nH]c3ccccc23)NC(=O)[C@@H](CC(=O)O)NC(=O)[C@@H](Cc2cn(C)c3ccccc23)NC1=O` [Example 95, Cyclo[-D-Asp-Trp-Asp-D-Leu-Leu-D-Trp(Me)-]], for which the “Binding Activity on ET Receptor (R. act.) ETB*2” value in the data set on ETB came out at 330. Further, in data set [2], the “Binding Activity on ET Receptor (R. act.) ETA” value turned out to be 110.
